# Assays:
# HIV-1 RT = HIV-1 RT (Human immunodeficiency virus type 1 group M subtype B, UniProt P03366); test: In vitro steady-state RT inhibition assay; format: biochemical
# HIV-1 (IIIB) = test: Antiviral activity against HIV-1; conditions: MT-2 cells
structure (smiles),measurement,setting,value
"COC(=O)COc1ccc(OC)cc1CCNC(=S)Nc1ccc(Br)cn1 [6k, N-(5-Bromo-2-pyridinyl)-N′-[2-(2-methoxycarbonylmethyloxy-5-methoxyphenyl)ethyl]-thiourea]",IC50,HIV-1 RT,100 nM
same,fold improvement in RT assay over cell culture,HIV-1 RT; RT IC50 versus cell-culture EC50,120 fold
"C#CCOc1ccc(OC)cc1CCNC(=S)Nc1ccc(Br)cn1 [6b, N-(5-Bromo-2-pyridinyl)-N′-[2-(5-methoxy-2-propargyloxyphenyl)ethyl]-thiourea]",activity relative to HI-236 in cell culture,HIV-1 (IIIB),equal to HI-236
COc1ccc(OCCCO)c(CCNC(=S)Nc2ccc(Br)cn2)c1 [6o],activity relative to HI-236 in the RT assay,HIV-1 RT,as active as HI-236
COc1ccc(OCCCC#N)c(CCNC(=S)Nc2ccc(Br)cn2)c1 [6m],activity relative to HI-236 in cell culture,HIV-1 (IIIB),equal to HI-236
"C#CCCOc1ccc(OC)cc1CCNC(=S)Nc1ccc(Br)cn1 [6c, N-(5-Bromo-2-pyridinyl)-N′-{2-[2-(3-butynyl-1-oxy)-5-methoxyphenyl]ethyl}-thiourea]",fold increase in activity compared to HI-236 in the RT assay,HIV-1 RT,7 fold
"C#CCCCOc1ccc(OC)cc1CCNC(=S)Nc1ccc(Br)cn1 [6d, N-(5-Bromo-2-pyridinyl)-N′-{2-[5-methoxy-2-(4-pentynyl-1-oxy)phenyl]ethyl}-thiourea]",activity relative to HI-236 in the RT assay,HIV-1 RT,as active as HI-236
C#CCOCCOc1ccc(OC)cc1CCNC(=S)Nc1ccc(Br)cn1 [6i],T.I (in vitro therapeutic index CC50/EC50),HIV-1 (IIIB),100

# Reference: publication PMC2639753 (Bioorganic & medicinal chemistry, 2008)
